Data published in US6156700A, “3-(1,2-Benzisothiazol- and isoxazol-5-yl)-2,4(1H,3H)-pyrimidinedione or thione and 3-(1,2-benzisothiazol- and isoxazol-5-yl)-4(3H)-pyrimidinone or thione herbicidal agents” (American Cyanmid Company, priority 1998, dated 2000).
“And” between values parts separate entries of the source, which are not always exact repeats. Equal entries are not always repeated.

Experiments:
[1] = system: ORYSAT; assay: Postemergence herbicidal evaluation; format: in vivo, Oryza sativa
[2] = system: TRZAWR; assay: Postemergence herbicidal evaluation; format: in vivo
[3] = system: ABUTH; assay: Postemergence herbicidal evaluation; format: in vivo
[4] = system: GALAP; assay: Postemergence herbicidal evaluation; format: in vivo
[5] = system: IPOHE; assay: Postemergence herbicidal evaluation; format: in vivo
[6] = system: ORYSAT; assay: Preemergence herbicidal evaluation; format: in vivo, Oryza sativa; parameters: scale not given here
[7] = system: GLXMA; assay: Postemergence herbicidal evaluation; format: in vivo
[8] = system: AMBEL; assay: Postemergence herbicidal evaluation; format: in vivo
[9] = system: CHEAL; assay: Postemergence herbicidal evaluation; format: in vivo
[10] = system: ZEAMX; assay: Postemergence herbicidal evaluation; format: in vivo
[11] = system: GALAP; assay: Preemergence herbicidal evaluation; format: in vivo; parameters: scale not given here
[12] = system: CHEAL; assay: Preemergence herbicidal evaluation; format: in vivo; parameters: scale not given here
[13] = system: CASOB; assay: Preemergence herbicidal evaluation; format: in vivo; parameters: scale not given here
[14] = system: GLXMAW; assay: Preemergence herbicidal evaluation; format: in vivo; parameters: scale not given here
[15] = system: TRZAWR; assay: Preemergence herbicidal evaluation; format: in vivo; parameters: scale not given here
[16] = system: ZEAMX; assay: Preemergence herbicidal evaluation; format: in vivo; parameters: scale not given here
[17] = system: ABUTH; assay: Preemergence herbicidal evaluation; format: in vivo; parameters: scale not given here
[18] = system: AMBEL; assay: Preemergence herbicidal evaluation; format: in vivo; parameters: scale not given here
[19] = system: ECHCG; assay: Preemergence herbicidal evaluation; format: in vivo; parameters: scale not given here
[20] = system: SETVI; assay: Preemergence herbicidal evaluation; format: in vivo; parameters: scale not given here
[21] = system: IPOSS; assay: Preemergence herbicidal evaluation; format: in vivo; parameters: scale not given here
[22] = system: SETVI; assay: Postemergence herbicidal evaluation; format: in vivo
[23] = system: IPOSS; assay: Postemergence herbicidal evaluation; format: in vivo
[24] = system: ECHCG; assay: Postemergence herbicidal evaluation; format: in vivo
[25] = system: CASOB; assay: Postemergence herbicidal evaluation; format: in vivo
[26] = system: GLXMA; assay: Preemergence herbicidal evaluation; format: in vivo
Protocol: The preemergence and postemergence herbicidal properties of certain compounds of the present invention are compared with certain compounds disclosed in U.S. Pat. Nos. 5,484,763 and 5,523,278. The evaluations are performed as described in Examples 185 and 186. Data in Tables V and VI are reported by the compound number given in Example 185 for the compounds of this invention or by comparative compound letter for the compounds disclosed in U.S. Pat. Nos. 5,484,763 and 5,523,278.

[27] = system: GLXMAW; assay: Postemergence herbicidal evaluation; format: in vivo

O=C1C2=C(CCCC2)C(=O)N1c1ccc2snc(-c3ccccc3)c2c1 [A]
herbicidal effect rating ([1]; 0.0157-0.0160 kg/ha): 2.0
herbicidal effect rating ([1]; 0.0313-0.0320 kg/ha): 2.3 and 2.1
herbicidal effect rating ([1]; 0.0625-0.0640 kg/ha): 2.6
herbicidal effect rating ([1]; 0.1250 kg/ha): 2.9
herbicidal effect rating ([1]; 0.2500 kg/ha): 3.6
herbicidal effect rating ([1]; 0.5000 kg/ha): 4.5
herbicidal effect rating ([2]; 0.0157-0.0160 kg/ha): 2
herbicidal effect rating ([2]; 0.0313-0.0320 kg/ha): 3.8
herbicidal effect rating ([2]; 0.0625-0.0640 kg/ha): 4.0
herbicidal effect rating ([2]; 0.1250 kg/ha): 4.3
herbicidal effect rating ([3]; 0.0313-0.0320 kg/ha): 9.0 and 7.8
herbicidal effect rating ([3]; 0.0625-0.0640 kg/ha): 8.6
herbicidal effect rating ([3]; 0.1250 kg/ha): 9.0
herbicidal effect rating ([3]; 0.2500 kg/ha): 9.0
herbicidal effect rating ([3]; 0.5000 kg/ha): 9.0
herbicidal effect rating ([4]; 0.0157-0.0160 kg/ha): 5.5 and 3.8
herbicidal effect rating ([4]; 0.0625-0.0640 kg/ha): 5.4
herbicidal effect rating ([4]; 0.1250 kg/ha): 6.4
herbicidal effect rating ([4]; 0.2500 kg/ha): 8.3
herbicidal effect rating ([4]; 0.5000 kg/ha): 9.0
herbicidal effect rating ([5]; 0.0157-0.0160 kg/ha): 5.0
herbicidal effect rating ([5]; 0.0313-0.0320 kg/ha): 5.7
herbicidal effect rating ([5]; 0.0625-0.0640 kg/ha): 6.0
herbicidal effect rating ([5]; 0.1250 kg/ha): 7.5
herbicidal effect rating ([6]; 0.0156-0.0160 kg/ha): 0.0
herbicidal effect rating ([6]; 0.0620-0.0630 kg/ha): 0.5
herbicidal effect rating ([6]; 0.1250 kg/ha): 0.5
herbicidal effect rating ([6]; 0.2500 kg/ha): 3.0
herbicidal effect rating ([6]; 0.5000 kg/ha): 3.0
herbicidal effect rating ([7]; 0.0157-0.0160 kg/ha): 3.5
herbicidal effect rating ([7]; 0.0313-0.0320 kg/ha): 4.3
herbicidal effect rating ([8]; 0.0157-0.0160 kg/ha): 7.0 and 6.0
herbicidal effect rating ([8]; 0.0313-0.0320 kg/ha): 9.0 and 5.6
herbicidal effect rating ([8]; 0.0625-0.0640 kg/ha): 6.9
herbicidal effect rating ([8]; 0.1250 kg/ha): 7.0
herbicidal effect rating ([8]; 0.2500 kg/ha): 9.0
herbicidal effect rating ([8]; 0.5000 kg/ha): 9.0
herbicidal effect rating ([9]; 0.0157-0.0160 kg/ha): 9.0 and 5.8
herbicidal effect rating ([9]; 0.0313-0.0320 kg/ha): 9.0 and 6.3
herbicidal effect rating ([9]; 0.0625-0.0640 kg/ha): 7.1
herbicidal effect rating ([9]; 0.1250 kg/ha): 7.9
herbicidal effect rating ([9]; 0.2500 kg/ha): 9.0
herbicidal effect rating ([9]; 0.5000 kg/ha): 9.0
herbicidal effect rating ([10]; 0.0313-0.0320 kg/ha): 4.0 and 3.4
herbicidal effect rating ([10]; 0.0625-0.0640 kg/ha): 3.7
herbicidal effect rating ([10]; 0.1250 kg/ha): 4.2
herbicidal effect rating ([10]; 0.2500 kg/ha): 3.8
herbicidal effect rating ([10]; 0.5000 kg/ha): 4.0
herbicidal effect rating ([11]; 0.0313-0.0320 kg/ha): 5.5
herbicidal effect rating ([11]; 0.0620-0.0630 kg/ha): 4.5
herbicidal effect rating ([11]; 0.1250 kg/ha): 7.0
herbicidal effect rating ([11]; 0.2500 kg/ha): 9.0
herbicidal effect rating ([11]; 0.5000 kg/ha): 9.0
herbicidal effect rating ([12]; 0.0156-0.0160 kg/ha): 2.0
herbicidal effect rating ([12]; 0.0620-0.0630 kg/ha): 2.5
herbicidal effect rating ([12]; 0.1250 kg/ha): 5.0
herbicidal effect rating ([12]; 0.2500 kg/ha): 7.0
herbicidal effect rating ([12]; 0.5000 kg/ha): 9.0
herbicidal effect rating ([13]; 0.0156-0.0160 kg/ha): 0.0
herbicidal effect rating ([13]; 0.0313-0.0320 kg/ha): 0.0
herbicidal effect rating ([13]; 0.0620-0.0630 kg/ha): 0.0
herbicidal effect rating ([13]; 0.1250 kg/ha): 1.5
herbicidal effect rating ([13]; 0.2500 kg/ha): 2.0
herbicidal effect rating ([13]; 0.5000 kg/ha): 2.0
herbicidal effect rating ([14]; 0.0313-0.0320 kg/ha): 0.0
herbicidal effect rating ([14]; 0.0620-0.0630 kg/ha): 0.0
herbicidal effect rating ([14]; 0.1250 kg/ha): 0.0
herbicidal effect rating ([14]; 0.2500 kg/ha): 0.0
herbicidal effect rating ([14]; 0.5000 kg/ha): 0.0
herbicidal effect rating ([15]; 0.0156-0.0160 kg/ha): 0.0
herbicidal effect rating ([15]; 0.0313-0.0320 kg/ha): 0.0
herbicidal effect rating ([15]; 0.0620-0.0630 kg/ha): 0.0
herbicidal effect rating ([15]; 0.1250 kg/ha): 0.0
herbicidal effect rating ([16]; 0.0156-0.0160 kg/ha): 0.0
herbicidal effect rating ([16]; 0.0313-0.0320 kg/ha): 0.0
herbicidal effect rating ([16]; 0.0620-0.0630 kg/ha): 0.0
herbicidal effect rating ([16]; 0.1250 kg/ha): 0.0
herbicidal effect rating ([16]; 0.2500 kg/ha): 0.0
herbicidal effect rating ([16]; 0.5000 kg/ha): 0.0
herbicidal effect rating ([17]; 0.0156-0.0160 kg/ha): 0.0
herbicidal effect rating ([17]; 0.0313-0.0320 kg/ha): 0.0
herbicidal effect rating ([17]; 0.0620-0.0630 kg/ha): 0.0
herbicidal effect rating ([17]; 0.1250 kg/ha): 5.0
herbicidal effect rating ([17]; 0.2500 kg/ha): 6.0
herbicidal effect rating ([17]; 0.5000 kg/ha): 7.0
herbicidal effect rating ([18]; 0.0156-0.0160 kg/ha): 0.0
herbicidal effect rating ([18]; 0.0620-0.0630 kg/ha): 2.0
herbicidal effect rating ([18]; 0.1250 kg/ha): 3.5
herbicidal effect rating ([18]; 0.2500 kg/ha): 6.0
herbicidal effect rating ([18]; 0.5000 kg/ha): 5.0
herbicidal effect rating ([19]; 0.0156-0.0160 kg/ha): 0.0
herbicidal effect rating ([19]; 0.0313-0.0320 kg/ha): 0.0
herbicidal effect rating ([19]; 0.0620-0.0630 kg/ha): 0.0
herbicidal effect rating ([19]; 0.1250 kg/ha): 0.0
herbicidal effect rating ([19]; 0.2500 kg/ha): 0.0
herbicidal effect rating ([19]; 0.5000 kg/ha): 0.0
herbicidal effect rating ([20]; 0.0156-0.0160 kg/ha): 0.0
herbicidal effect rating ([20]; 0.0313-0.0320 kg/ha): 0.0
herbicidal effect rating ([20]; 0.0620-0.0630 kg/ha): 0.0
herbicidal effect rating ([20]; 0.1250 kg/ha): 2.5
herbicidal effect rating ([20]; 0.2500 kg/ha): 2.0
herbicidal effect rating ([20]; 0.5000 kg/ha): 3.0
herbicidal effect rating ([21]; 0.0156-0.0160 kg/ha): 0.0
herbicidal effect rating ([21]; 0.0313-0.0320 kg/ha): 0.0
herbicidal effect rating ([21]; 0.0620-0.0630 kg/ha): 0.0
herbicidal effect rating ([21]; 0.1250 kg/ha): 0.0
herbicidal effect rating ([21]; 0.2500 kg/ha): 0.0
herbicidal effect rating ([21]; 0.5000 kg/ha): 2.0
herbicidal effect rating ([22]; 0.0157-0.0160 kg/ha): 1.0 and 1.2
herbicidal effect rating ([22]; 0.0313-0.0320 kg/ha): 1.0 and 1.6
herbicidal effect rating ([22]; 0.0625-0.0640 kg/ha): 2.1
herbicidal effect rating ([22]; 0.1250 kg/ha): 3.0
herbicidal effect rating ([22]; 0.2500 kg/ha): 2.7
herbicidal effect rating ([22]; 0.5000 kg/ha): 2.0
herbicidal effect rating ([23]; 0.0157-0.0160 kg/ha): 5.5 and 5.0
herbicidal effect rating ([23]; 0.0313-0.0320 kg/ha): 9.0 and 6.8
herbicidal effect rating ([23]; 0.0625-0.0640 kg/ha): 7.5
herbicidal effect rating ([23]; 0.1250 kg/ha): 8.4
herbicidal effect rating ([23]; 0.2500 kg/ha): 9.0
herbicidal effect rating ([23]; 0.5000 kg/ha): 9.0
herbicidal effect rating ([24]; 0.0157-0.0160 kg/ha): 1.0 and 0.5
herbicidal effect rating ([24]; 0.0313-0.0320 kg/ha): 1.0 and 0.6
herbicidal effect rating ([24]; 0.0625-0.0640 kg/ha): 1.0
herbicidal effect rating ([24]; 0.1250 kg/ha): 1.8
herbicidal effect rating ([24]; 0.2500 kg/ha): 2.7
herbicidal effect rating ([24]; 0.5000 kg/ha): 2.0
herbicidal effect rating ([25]; 0.0625-0.0640 kg/ha): 7.9
herbicidal effect rating ([25]; 0.1250 kg/ha): 8.9
herbicidal effect rating ([25]; 0.2500 kg/ha): 9.0
herbicidal effect rating ([25]; 0.5000 kg/ha): 9.0
herbicidal effect rating ([26]; 0.0156-0.0160 kg/ha): 0.0
herbicidal effect rating ([26]; 0.0313-0.0320 kg/ha): 0.0
herbicidal effect rating ([27]; 0.0157-0.0160 kg/ha): 4.0
herbicidal effect rating ([27]; 0.0313-0.0320 kg/ha): 4.0
herbicidal effect rating ([27]; 0.0625-0.0640 kg/ha): 4.6
herbicidal effect rating ([27]; 0.1250 kg/ha): 4.6
herbicidal effect rating ([27]; 0.2500 kg/ha): 4.6
herbicidal effect rating ([27]; 0.5000 kg/ha): 4.5
